From paper PMC7463999, “Antioxidant, Anti-inflammatory and Neuroprotective Profiles of Novel 1,4-Dihydropyridine Derivatives for the Treatment of Alzheimer’s Disease” (Antioxidants, 2020)
Several values for one entry are separate records, joined by “and”; a condition that tells them apart may be missing. Equal entries are not always repeated. Where two headings read alike, the source gives them in different places.

Legend:
[1] = test system: blood-brain barrier (passive diffusion); test: Blood-brain barrier permeation assay (PAMPA), porcine brain lipid; type: in vitro ADME; conditions: PAMPA; 100 µM, PBS pH 7.4, 4 h at 25 °C, mean ± SEM; read-out: PAMPA Pe
[2] = as above; type: in vitro ADME; conditions: for PAMPA Prediction: BBB permeability class from Pe
[3] = test system: SH-SY5Y human neuroblastoma cells; test: Neuroprotection against rotenone/oligomycin A (oxidative stress), MTT; conditions: 1 μM, rotenone 30 μM / oligomycin A 10 μM, 24 h
Experimental: (§1) Cells were pre-incubated with the corresponding compound at 1 μM in neuroblastoma culture medium. After 24 h, the medium was removed and replaced with 1% FBS neuroblastoma culture media containing the corresponding compound at 1 µM and the toxic stimuli, namely a mixture of rotenone and oligomycin A (R/O, 30 μM/10 μM, respectively), okadaic acid (OA) at 20 nM or a high concentration of KCl (70 mM). Cells were co-incubated for further 24 h with the R/O mixture or KCl solution, or 18 h with the OA solution. […] Control cells were incubated with the same amount of dimethyl sulfoxide (DMSO) without any drug. After the co-incubation period, cell viability was assessed by the 3-(4,5-dimethylthiazol-2-yl)-2,5-diphenyltetrazolium bromide (MTT) reduction method [56]; basal condition was considered as 100% survival.
(§2) Neuroprotection in the SH-SY5Y neuroblastoma cell line
(§3) A pre- and co-incubation protocol was followed. Cells were pre-incubated with the
(§4) corresponding compound at 1 M in neuroblastoma culture medium. After 24 h, the
(§5) medium was removed and replaced with 1% FBS neuroblastoma culture media
(§6) containing the corresponding compound at 1 µM and the toxic stimuli, namely a mixture
(§7) of rotenone and oligomycin A (30 M/10 M respectively), okadaic acid at 20 nM or a
(§8) high concentration of potassium chloride (70 mM). Cells were co-incubated for further
(§9) 24 h with the rotenone and oligomycin A or potassium chloride solution, or 18 h with the
(§10) okadaic acid solution. Control cells were incubated with the same amount of DMSO
(§11) and reference compounds in the rotenone-oligomycin A, okadaic acid or high
(§12) concentration of potassium models respectively. After the co-incubation period, cell
(§13) viability was assessed by the MTT-reduction method [11] considering basal conditions
Viability assay by MTT-reduction
(§14) SH-SY5Y, primary glial culture cells and rat hippocampal slices viability was
(§15) measured by the MTT assay [11]. This method is based on the cleavage of the tetrazolium
(§16) ring of MTT by active dehydrogenases, generating a formazan precipitate. At the end of
(§17) the neuroprotection or toxicity experiments, an MTT solution was added to each well to
(§18) reach a final concentration of 0.5 mg/mL. After 2 additional hours of incubation, the
(§19) solution was replaced by 100 or 300 µL of DMSO to solubilize the formazan precipitate.
(§20) in control cells was considered as 100 % of cell survival and used to reference all
(§21) treatments. The percentage of protection was calculated as follows: the percentage of cell
(§22) survival obtained with the toxic stimuli-treated cells subtracted to 100 was normalized to
(§23) 100 % of cell death. The percentage of protection was obtained by subtracting the
(§24) percentage of cell death in presence of the tested compound to 100 %.

[4] = test system: primary glial cultures; test: Cytotoxicity (gliotoxicity) in primary glial cultures, MTT; conditions: 24 h
Experimental: (§25) cell line SH-SY5Y and primary glial cultures. Viability was measured as
(§26) MTT reduction in presence of increasing concentrations of derivatives.
(§27) Values are expressed as LD50 calculated from dose-response curves of four
(§28) different concentrations. Data are expressed as mean  SEM of five
different experiments in triplicate.
(§29) Mixed glial cultures were obtained from cerebral cortex of 2-5-day-old Sprague-Dawley rats. After removal of blood vessels and meninges, the forebrains were dissociated in DMEM/F12 medium. After mechanical dissociation, cells were plated (3x10^5 cells/ml) in DMEM/F12 medium with 20 % fetal bovine serum (FBS) and 1 % penicillin/streptomycin (10,000 units), at 37 °C and in a 5 % CO2-supplemented air atmosphere. After 5 days, medium was substituted by DMEM/F12 medium with 10 %
(§30) FBS. Cells were cultured for 7-10 days before treatment.
(§31) SH-SY5Y or primary glial cells were cultured in 96-well plates for 24 h. Then, cells
(§32) were treated with the compounds at 10, 30 and 100 µM in the corresponding culture media
(§33) with 1 % FBS After 24 h, cell viability was assessed by the MTT-reduction assay. Control
(§34) cells were incubated with the same concentration of DMSO (0.1 % final concentration)
Viability assay by MTT-reduction
as §14
measured by the MTT assay [11].

[5] = Oxygen Radical Absorbance Capacity (ORAC) assay; conditions: Trolox equivalents, ORAC of Trolox = 1.0; AAPH, fluorescein
[6] = DPPH reduction assay; conditions: DPPH 100 µM, 1 h in the dark
Experimental: The final solution was incubated during 1 h in the dark. […] Results are expressed as a percentage of DPPH reduction by subtracting blank absorbance (Absblank) to sample absorbance (Abssample) and corrected by control absorbance, (Abscontrol, DPPH alone, as expressed below: % DPPH reduction = [100 − ((Abssample − Absblank) × 100/Abscontrol)](1)
Briefly, the compounds under assay (150 µL) at the desired concentration (1, 10, 60 and 100 µM) in methanol/water (80/20) were added to a solution of DPPH in methanol/water (80/20) (150 µL, 100 µM), in a clear bottom 96-well plate, and the final solution was incubated 1 h in the dark. Then, DPPH absorbance of blank (methanol/water), control
Optima plate-reader (BMG Labtech, Ortenberg, Germany) in duplicate.
Results are expressed as % of absorbance (Abs) reduction of control after subtracting blank absorbance, as expressed
% DPPH reduction = [100 – (Abssample-Absblank) x 100]/Abscontrol

[7] = test system: neuroblastoma cell line SH-SY5Y; test: Cytotoxicity (neurotoxicity) in SH-SY5Y, MTT; conditions: 24 h
Experimental: (§35) LD50 in SH-SY5Y and primary glial culture cells
as §25, §26, §27, §28
different experiments in triplicate.
as §31, §32, §33, §34
Viability assay by MTT-reduction
as §14, §15, §16, §17, §18, §19, §20

[8] = test system: SH-SY5Y human neuroblastoma cells; test: Neuroprotection against okadaic acid (tau hyperphosphorylation), MTT; conditions: 18 h
Experimental: as §1, §2, §3, §4, §5, §6, §7, §8, §9, §10, §11, §12, §13
Viability assay by MTT-reduction
as §14, §15, §16, §17, §18, §19, §20, §21, §22, §23, §24

[9] = test system: voltage-dependent Ca^2+ channels (VDCC); test: Voltage dependent calcium channels blockade assay (Fluo-4, 70 mM K+); type: cell-based, human; conditions: compounds at 10 μM, SH-SY5Y, basal = 100% response
Experimental: Free cytosolic Ca^2+ was measured using the fluorescence Ca^2+ indicator Fluo-4/AM. SH-SY5Y cells were seeded in 96-well black bottom transparent plates at a density of 60,000 cells per well and cultured until they reach confluence. Cells were incubated with the Ca^2+ sensitive dye Fluo-4/AM at 5 µM in Krebs-HEPES buffer (KH) (145 mM NaCl, 4.9 mM KCl, 1.2 mM MgCl2, 2 mM CaCl2, 10 mM HEPES, 11 mM glucose, pH 7.4), and 0.05% pluronic acid, for 1 h at 37 °C in the dark. Then, cells were washed twice with KH solution to remove the excess of probe and compounds in solution were added. Test compounds at 10 µM were incubated 10 min before K^+ 70 mM was applied to trigger cytosolic Ca^2+ increase. Fluorescence was measured in a fluorescence microplate reader (FLUOstar Optima, BMG, Ortenberg, Baden-Wuerttemberg, Germany) at excitation and emission wavelengths 485 and 520 nm, respectively. To normalize Fluo-4 signals, Triton X-100 (5%) and subsequently MnCl2 1 M were applied to the cells to register maximal and minimal fluorescence, respectively. Data were calculated as a percentage of Fluorescence increment with respect to Fmax − Fmin. The percentage of response was calculated considering basal conditions as 100% response.
Voltage dependent Calcium Channel Blockade Assay
Free cytosolic Ca2+ was measured using the fluorescence Ca2+ indicator Fluo-4/AM.
SH-SY5Y cells were seeded in 96-well black bottom transparent plates at a density of 60,000 cells per well until reaching confluence. Cells were incubated with the Ca2+ sensitive dye fluo-4 AM at 5 µM in Krebs-Hepes buffer (KH) (145 mM NaCl, 4.9 mM KCl, 1.2 mM MgCl2, 2 mM CaCl2, 10 mM HEPES, 11 mM glucose, pH 7.4), and 0.05 % pluronic acid, for 1 h at 37 °C in the dark. Then, cells were washed twice with KH solution to remove the excess of probe and compounds in solution were added. Tested compounds at 10 µM were incubated 10 min before K+ 70 mM was applied to evoke the increment of cytosolic Ca2+. The experiments were analyzed at excitation and emission wavelengths of 485 and 520 nm, respectively, and fluorescence was measured in a fluorescence microplate reader (FLUOstar Optima, BMG, Germany). To normalize Fluo-4 signals, Triton X-100 (5 %) and subsequently MnCl2 1 M were applied to cells for registering both maximal and minimal fluorescence, respectively. Data were calculated as % F increment respect to Fmax – Fmin. % of blockade was calculated considering basal conditions as 100 % response.
Then, the donor filter plate was carefully put on the acceptor plate to form a “sandwich”, which was left undisturbed for 4 h at 25 °C. During this time, the compounds diffused from the donor plate through the polar brain lipid membrane (area = 0.28 cm2) into the acceptor plate. After incubation, the donor plate was carefully removed. UV plate reader determined the concentration of compounds and commercial drugs in both acceptor and […]

[10] = test system: primary glial cultures stimulated with LPS; test: Nitrite production reduction (Griess) in LPS-stimulated mixed primary glial cultures; type: cell-based, rat; conditions: for EC50: Rattus norvegicus, LPS 1 μg/mL, 24 h pre-incubation, 18 h co-incubation
[11] = target: GSK-3β (Homo sapiens, UniProt P49841); test: GSK-3β inhibition, Kinase-Glo luminescence assay
GSK-3β, sequence (P49841 whole entry): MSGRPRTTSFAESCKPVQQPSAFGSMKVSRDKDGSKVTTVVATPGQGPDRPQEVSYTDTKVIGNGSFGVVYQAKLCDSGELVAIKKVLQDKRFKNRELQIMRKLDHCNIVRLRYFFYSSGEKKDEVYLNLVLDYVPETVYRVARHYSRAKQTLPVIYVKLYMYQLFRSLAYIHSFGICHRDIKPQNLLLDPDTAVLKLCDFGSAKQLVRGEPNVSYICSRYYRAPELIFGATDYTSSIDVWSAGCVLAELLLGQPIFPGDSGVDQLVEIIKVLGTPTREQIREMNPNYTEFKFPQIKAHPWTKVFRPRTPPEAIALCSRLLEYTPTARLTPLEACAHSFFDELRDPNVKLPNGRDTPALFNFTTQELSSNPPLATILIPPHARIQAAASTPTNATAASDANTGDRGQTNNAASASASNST

[12] = test system: rat hippocampal slices; test: ROS production (H2DCFDA) in rat hippocampal slices treated with okadaic acid; type: cell-based; conditions: OA 1 μM + compound 10 μM, 6 h
[13] = test system: primary glial cultures; conditions: Sprague-Dawley, rat, 24 h
Experimental: as §25, §26, §27, §28
different experiments in triplicate.
as §29, §30, §31, §32, §33, §34
Viability assay by MTT-reduction
as §14
measured by the MTT assay [11].

[14] = test system: neuroblastoma cell line SH-SY5Y; conditions: human, 24 h
Experimental: as §35, §25, §26, §27, §28
different experiments in triplicate.
as §31, §32, §33, §34
Viability assay by MTT-reduction
as §14, §15, §16, §17, §18, §19, §20

[15] = test system: SH-SY5Y human neuroblastoma cells; test: Neuroprotection against 70 mM K+ ([Ca2+]c overload), MTT; conditions: 1 μM, 24 h, basal = 100%
Experimental: as §1, §2, §3, §4, §5
containing the corresponding compound at 1 µM and the toxic stimuli, namely a mixture […]
viability was assessed by the MTT-reduction method [11] considering basal conditions […]
measured by the MTT assay [11]. […]
treatments. The percentage of protection was calculated as follows: the percentage of cell […]

[16] = test system: primary glial cultures stimulated with LPS; conditions: read-out: EC50 Nitrite Reduction; LPS 1 μg/mL; cited from earlier work
[17] = test system: rat hippocampal slices; conditions: OA 1 μM alone, 6 h
Experimental: Finally, cell viability and ROS production were measured.
After the co-incubation period, cell
as §13
Viability assay by MTT-reduction
as §14, §15, §16, §17, §18, §19, §20, §21, §22, §23, §24
Acute treatment in rat hippocampal slices
3-4 months-old Sprague-Dawley rats were beheaded and both hippocampi dissected
0.5 mM CaCl2; 11 mM glucose and 200 mM sucrose at pH 7.4). […]
All values are expressed as mean ± S.E.M. IC50 and LD50 values were calculated by […]

Structure (SMILES)	Papp at 4 h, 100 µM [1] [×10⁻⁶ cm/s]	PAMPA Prediction [2]	percentage of protection, R/O toxicity [3] [%]	Glial cultures LD50 [4] [µM]	ORAC (T. Eq.) [5]	IC50 [6] [µM]	SH-SY5Y LD50 [7] [µM]	VDCC % Response [9]	EC50 [10] [µM]	IC50 [11] [µM]	Ki [11] [µM]	survival percentage, high K+ toxicity [15] [%]	also measured
Cc1[nH]nc2c1C(c1ccc(Br)cc1)C(C#N)=C(N)N2 (stereo not shown) [4g, 6-amino-4-(4-bromophenyl)-3-methyl-4,7-dihydro-2H-pyrazolo[3,4-b]pyridine-5-carbonitrile]	7.2 ± 2.4	CNS+	59.7	> 100	0.96 T. Eq. and 0.96 ± 0.05 T. Eq.	24.1 ± 3.74	> 100	62% and 62.1 ± 1.6%	4.5 ± 0.6	2.35 ± 1.1	1.65		BBB permeation prediction in words ([2]; PAMPA): predicted to cross the BBB; viability at 1 µM ([8]; Homo sapiens, SH-SY5Y, read-out: cell viability (percentage survival), okadaic acid toxicity): 86.7%; fold more potent as anti-inflammatory than 4f ([10]; ratio of nitrite reduction EC50 values): 2.2 fold; free radical production (H2DCFDA fluorescence) [12]: reduced free radical production to basal conditions
COc1ccc2[nH]cc(CCNC(C)=O)c2c1 [Melatonin]			52.5										Glial cultures LD50 [13]: > 100 µM; SH-SY5Y LD50 [14]: > 100 µM
Cc1[nH]nc2c1C(c1ccncc1)C(C#N)=C(N)N2 (stereo not shown) [4l]	5 ± 2.9	CNS+	71.6	> 100	1.1 T. Eq. and 1.10 ± 0.13 T. Eq.	22.9 ± 4.23	> 100	68.9 ± 4.5%	15.6 ± 3.35	10.2 ± 3.2	7.14	78.9	percentage of protection, okadaic acid toxicity ([8]; 1 μM, OA 20 nM): over 50%
C[S+]([O-])CCCCN=C=S (stereo not shown) [Sulforaphane]													EC50 [16]: 1.4 ± 0.3 µM
Cc1[nH]nc2c1C(c1cccc(Cl)c1)C(C#N)=C(N)N2 (stereo not shown) [4d]	11.8 ± 3	CNS+	32.0	> 100	0.63 T. Eq. and 0.63 ± 0.09 T. Eq.	22.8 ± 4.63	> 100	76.0 ± 6.5%	0.78 ± 1.98	1.05 ± 0.3	0.74	61.4	percentage of survival, R/O toxicity ([3]; basal = 100%): 72.3%
C=C1[C@@H](O)[C@@H]2O[C@]3(CC[C@H](/C=C/[C@@H](C)[C@@H]4CC(C)=C[C@@]5(O[C@H](C[C@@](C)(O)C(=O)O)CC[C@H]5O)O4)O3)CC[C@H]2O[C@@H]1[C@@H](O)C[C@H](C)[C@H]1O[C@@]2(CCCCO2)CC[C@H]1C [OA, okadaic acid]													reduction of cell viability of hippocampal slices [17]: 30%
